Values joined by “and” are separate entries in the source; they are usually repeats but may differ in a detail not shown here. Equal entries are not always repeated.
Key:
Type in all cases: cell-based
[1] = target: panel of 320 non-olfactory GPCRs (Homo sapiens, UniProt P55085)
[2] = target: panel of 320 non-olfactory GPCRs (Homo sapiens, UniProt Q15077)
[3] = target: panel of 320 non-olfactory GPCRs (Homo sapiens, UniProt O95800)
[4] = target: panel of 320 non-olfactory GPCRs (Homo sapiens, UniProt O15552)
[5] = target: panel of 320 non-olfactory GPCRs (Homo sapiens, UniProt P51810)
[6] = target: panel of 320 non-olfactory GPCRs (Homo sapiens, UniProt Q15743)
Sequence of panel of 320 non-olfactory GPCRs (Homo sapiens, UniProt Q15743) (Q15743 whole entry): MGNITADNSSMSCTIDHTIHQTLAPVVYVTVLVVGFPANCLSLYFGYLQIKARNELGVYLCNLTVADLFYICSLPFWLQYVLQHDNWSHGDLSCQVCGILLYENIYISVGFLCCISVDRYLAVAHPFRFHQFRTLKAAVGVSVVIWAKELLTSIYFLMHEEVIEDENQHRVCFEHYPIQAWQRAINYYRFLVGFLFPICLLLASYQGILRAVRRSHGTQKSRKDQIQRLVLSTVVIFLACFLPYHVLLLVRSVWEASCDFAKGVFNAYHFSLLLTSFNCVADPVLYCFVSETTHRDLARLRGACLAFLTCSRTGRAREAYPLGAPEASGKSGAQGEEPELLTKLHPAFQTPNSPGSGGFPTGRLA

[7] = target: panel of 320 non-olfactory GPCRs (Homo sapiens, UniProt Q9HBW9)
[8] = target: panel of 320 non-olfactory GPCRs (Homo sapiens, UniProt P41231)
[9] = target: panel of 320 non-olfactory GPCRs (Homo sapiens, UniProt P25106)
Sequence of panel of 320 non-olfactory GPCRs (Homo sapiens, UniProt P25106) (P25106 whole entry): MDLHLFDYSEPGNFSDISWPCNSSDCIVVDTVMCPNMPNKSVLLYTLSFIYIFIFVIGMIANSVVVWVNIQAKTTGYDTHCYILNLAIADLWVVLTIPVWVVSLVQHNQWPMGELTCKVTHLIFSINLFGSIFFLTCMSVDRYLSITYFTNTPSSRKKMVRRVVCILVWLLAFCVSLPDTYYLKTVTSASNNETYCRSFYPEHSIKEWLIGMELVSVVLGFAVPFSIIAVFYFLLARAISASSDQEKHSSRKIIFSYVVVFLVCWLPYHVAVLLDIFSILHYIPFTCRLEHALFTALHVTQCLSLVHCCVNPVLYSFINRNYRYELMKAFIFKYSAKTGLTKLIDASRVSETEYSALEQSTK

[10] = target: panel of 320 non-olfactory GPCRs (Homo sapiens, UniProt Q9GZQ4)
Sequence of panel of 320 non-olfactory GPCRs (Homo sapiens, UniProt Q9GZQ4) (Q9GZQ4 whole entry): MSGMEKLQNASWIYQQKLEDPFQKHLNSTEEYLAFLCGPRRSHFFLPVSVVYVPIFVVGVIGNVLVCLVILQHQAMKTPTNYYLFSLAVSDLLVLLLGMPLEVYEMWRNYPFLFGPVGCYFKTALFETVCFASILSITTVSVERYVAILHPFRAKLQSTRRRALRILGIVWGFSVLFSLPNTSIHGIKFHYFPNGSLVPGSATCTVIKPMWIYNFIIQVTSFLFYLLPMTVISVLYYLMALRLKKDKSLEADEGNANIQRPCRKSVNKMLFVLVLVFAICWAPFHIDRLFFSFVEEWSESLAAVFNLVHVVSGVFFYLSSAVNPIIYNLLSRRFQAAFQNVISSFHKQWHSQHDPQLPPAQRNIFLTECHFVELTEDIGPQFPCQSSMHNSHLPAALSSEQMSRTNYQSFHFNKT

[11] = target: panel of 320 non-olfactory GPCRs (Homo sapiens, UniProt Q8TDT2)
[12] = target: panel of 320 non-olfactory GPCRs (Homo sapiens, UniProt Q01726)
[13] = target: panel of 320 non-olfactory GPCRs (Homo sapiens, UniProt P51679)
Sequence of panel of 320 non-olfactory GPCRs (Homo sapiens, UniProt P51679) (P51679 whole entry): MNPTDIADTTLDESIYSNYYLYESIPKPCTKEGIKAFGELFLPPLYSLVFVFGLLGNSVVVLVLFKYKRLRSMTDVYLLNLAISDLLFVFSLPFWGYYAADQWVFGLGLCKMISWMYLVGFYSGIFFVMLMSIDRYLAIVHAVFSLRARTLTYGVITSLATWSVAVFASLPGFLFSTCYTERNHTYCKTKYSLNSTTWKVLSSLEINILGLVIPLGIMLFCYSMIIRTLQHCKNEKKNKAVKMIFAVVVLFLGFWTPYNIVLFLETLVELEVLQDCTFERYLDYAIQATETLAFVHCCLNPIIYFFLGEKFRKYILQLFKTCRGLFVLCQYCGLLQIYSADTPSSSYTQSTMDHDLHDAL

[14] = target: panel of 320 non-olfactory GPCRs (Homo sapiens, UniProt P28222)
Sequence of panel of 320 non-olfactory GPCRs (Homo sapiens, UniProt P28222) (P28222 whole entry): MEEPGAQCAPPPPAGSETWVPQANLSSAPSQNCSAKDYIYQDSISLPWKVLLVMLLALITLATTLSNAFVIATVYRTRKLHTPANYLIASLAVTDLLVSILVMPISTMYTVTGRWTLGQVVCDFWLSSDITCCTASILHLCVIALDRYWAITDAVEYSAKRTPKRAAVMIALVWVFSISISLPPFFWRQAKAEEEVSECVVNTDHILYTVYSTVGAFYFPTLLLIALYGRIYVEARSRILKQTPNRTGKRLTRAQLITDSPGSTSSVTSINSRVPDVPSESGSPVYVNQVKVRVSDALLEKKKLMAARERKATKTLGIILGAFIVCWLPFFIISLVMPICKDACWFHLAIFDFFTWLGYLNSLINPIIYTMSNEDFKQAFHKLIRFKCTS

[15] = target: panel of 320 non-olfactory GPCRs (Homo sapiens, UniProt Q86VZ1)
[16] = target: panel of 320 non-olfactory GPCRs (Homo sapiens, UniProt P08172)
[17] = target: panel of 320 non-olfactory GPCRs (Homo sapiens, UniProt Q9UJ42)
[18] = target: panel of 320 non-olfactory GPCRs (Homo sapiens, UniProt Q16538)
[19] = target: panel of 320 non-olfactory GPCRs (Homo sapiens, UniProt Q9NS66)
[20] = target: panel of 320 non-olfactory GPCRs (Homo sapiens, UniProt Q9HBW0)
[21] = target: panel of 320 non-olfactory GPCRs (Homo sapiens, UniProt P30989)
Sequence of panel of 320 non-olfactory GPCRs (Homo sapiens, UniProt P30989) (P30989 whole entry): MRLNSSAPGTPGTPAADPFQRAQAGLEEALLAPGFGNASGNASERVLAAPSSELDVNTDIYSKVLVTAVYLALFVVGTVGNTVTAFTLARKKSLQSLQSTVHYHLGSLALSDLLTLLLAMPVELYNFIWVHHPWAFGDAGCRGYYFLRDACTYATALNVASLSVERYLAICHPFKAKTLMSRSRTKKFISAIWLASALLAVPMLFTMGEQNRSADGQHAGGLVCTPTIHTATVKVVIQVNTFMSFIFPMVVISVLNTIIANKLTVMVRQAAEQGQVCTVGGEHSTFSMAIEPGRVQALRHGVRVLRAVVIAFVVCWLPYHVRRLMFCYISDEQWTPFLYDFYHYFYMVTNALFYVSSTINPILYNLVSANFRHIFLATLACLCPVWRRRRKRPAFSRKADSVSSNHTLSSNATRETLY

[22] = target: panel of 320 non-olfactory GPCRs (Homo sapiens, UniProt Q15761)
[23] = target: panel of 320 non-olfactory GPCRs (Homo sapiens, UniProt P43657)
[24] = target: panel of 320 non-olfactory GPCRs (Homo sapiens, UniProt P47775)
[25] = target: panel of 320 non-olfactory GPCRs (Homo sapiens, UniProt Q9Y5Y4)
[26] = target: panel of 320 non-olfactory GPCRs (Homo sapiens, UniProt P30411)
Sequence of panel of 320 non-olfactory GPCRs (Homo sapiens, UniProt P30411) (P30411 whole entry): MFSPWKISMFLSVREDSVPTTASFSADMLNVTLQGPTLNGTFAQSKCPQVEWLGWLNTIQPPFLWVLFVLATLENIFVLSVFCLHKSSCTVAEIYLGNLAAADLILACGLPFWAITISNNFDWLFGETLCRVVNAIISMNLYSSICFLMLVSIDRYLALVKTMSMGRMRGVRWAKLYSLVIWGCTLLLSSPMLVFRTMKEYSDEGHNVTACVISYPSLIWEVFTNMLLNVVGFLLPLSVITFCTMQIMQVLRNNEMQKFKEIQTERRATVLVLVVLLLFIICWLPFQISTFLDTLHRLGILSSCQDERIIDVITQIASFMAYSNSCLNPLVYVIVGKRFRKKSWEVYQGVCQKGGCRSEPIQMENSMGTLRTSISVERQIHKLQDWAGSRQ

[27] = target: panel of 320 non-olfactory GPCRs (Homo sapiens, UniProt Q99680)
[28] = target: panel of 320 non-olfactory GPCRs (Homo sapiens, UniProt Q96RI0)
[29] = target: panel of 320 non-olfactory GPCRs (Homo sapiens, UniProt O00222)
[30] = target: panel of 320 non-olfactory GPCRs (Homo sapiens, UniProt P48145)
[31] = target: panel of 320 non-olfactory GPCRs (Homo sapiens, UniProt Q9NS75)
Sequence of panel of 320 non-olfactory GPCRs (Homo sapiens, UniProt Q9NS75) (Q9NS75 whole entry): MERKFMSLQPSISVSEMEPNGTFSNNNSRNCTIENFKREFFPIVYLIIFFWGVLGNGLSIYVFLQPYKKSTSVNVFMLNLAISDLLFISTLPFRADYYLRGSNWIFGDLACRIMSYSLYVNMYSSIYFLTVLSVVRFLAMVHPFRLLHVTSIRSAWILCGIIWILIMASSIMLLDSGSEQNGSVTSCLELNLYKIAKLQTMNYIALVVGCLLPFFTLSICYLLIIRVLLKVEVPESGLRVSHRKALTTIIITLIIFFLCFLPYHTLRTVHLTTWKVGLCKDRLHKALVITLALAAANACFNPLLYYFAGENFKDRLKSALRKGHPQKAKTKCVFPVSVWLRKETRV

[32] = target: panel of 320 non-olfactory GPCRs (Homo sapiens, UniProt Q9BZJ6)
[33] = target: panel of 320 non-olfactory GPCRs (Homo sapiens, UniProt Q14439)
[34] = target: panel of 320 non-olfactory GPCRs (Homo sapiens, UniProt P49190)
[35] = target: panel of 320 non-olfactory GPCRs (Homo sapiens, UniProt P46091)
Sequence of panel of 320 non-olfactory GPCRs (Homo sapiens, UniProt P46091) (P46091 whole entry): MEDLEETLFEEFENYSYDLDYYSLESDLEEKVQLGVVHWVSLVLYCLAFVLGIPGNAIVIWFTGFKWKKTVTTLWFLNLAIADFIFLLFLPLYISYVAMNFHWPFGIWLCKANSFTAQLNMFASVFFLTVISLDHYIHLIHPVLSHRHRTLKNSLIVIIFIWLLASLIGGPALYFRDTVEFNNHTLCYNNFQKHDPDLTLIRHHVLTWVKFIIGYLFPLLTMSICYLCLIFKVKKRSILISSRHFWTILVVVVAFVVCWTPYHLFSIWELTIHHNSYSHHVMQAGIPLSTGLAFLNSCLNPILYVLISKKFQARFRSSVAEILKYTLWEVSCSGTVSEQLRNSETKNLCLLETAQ

[36] = target: panel of 320 non-olfactory GPCRs (Homo sapiens, UniProt P30872)
[37] = target: panel of 320 non-olfactory GPCRs (Homo sapiens, UniProt P28335, I156V/I160V/N158G)
Sequence of panel of 320 non-olfactory GPCRs (Homo sapiens, UniProt P28335, I156V/I160V/N158G) (P28335 33-458 I156V/N158G/I160V): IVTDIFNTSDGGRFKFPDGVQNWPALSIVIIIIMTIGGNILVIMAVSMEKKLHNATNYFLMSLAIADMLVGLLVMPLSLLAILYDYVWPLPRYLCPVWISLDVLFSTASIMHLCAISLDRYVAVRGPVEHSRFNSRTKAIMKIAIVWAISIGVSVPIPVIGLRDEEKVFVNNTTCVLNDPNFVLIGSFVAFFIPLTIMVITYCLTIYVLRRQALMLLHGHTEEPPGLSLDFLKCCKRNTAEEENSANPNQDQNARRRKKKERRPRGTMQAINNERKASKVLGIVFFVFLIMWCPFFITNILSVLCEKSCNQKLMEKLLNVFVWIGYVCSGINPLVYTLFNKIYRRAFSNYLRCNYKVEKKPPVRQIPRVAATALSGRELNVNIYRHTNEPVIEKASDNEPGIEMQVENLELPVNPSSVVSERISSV

Sequence of panel of 320 non-olfactory GPCRs (Homo sapiens, UniProt O95800) (O95800 whole entry): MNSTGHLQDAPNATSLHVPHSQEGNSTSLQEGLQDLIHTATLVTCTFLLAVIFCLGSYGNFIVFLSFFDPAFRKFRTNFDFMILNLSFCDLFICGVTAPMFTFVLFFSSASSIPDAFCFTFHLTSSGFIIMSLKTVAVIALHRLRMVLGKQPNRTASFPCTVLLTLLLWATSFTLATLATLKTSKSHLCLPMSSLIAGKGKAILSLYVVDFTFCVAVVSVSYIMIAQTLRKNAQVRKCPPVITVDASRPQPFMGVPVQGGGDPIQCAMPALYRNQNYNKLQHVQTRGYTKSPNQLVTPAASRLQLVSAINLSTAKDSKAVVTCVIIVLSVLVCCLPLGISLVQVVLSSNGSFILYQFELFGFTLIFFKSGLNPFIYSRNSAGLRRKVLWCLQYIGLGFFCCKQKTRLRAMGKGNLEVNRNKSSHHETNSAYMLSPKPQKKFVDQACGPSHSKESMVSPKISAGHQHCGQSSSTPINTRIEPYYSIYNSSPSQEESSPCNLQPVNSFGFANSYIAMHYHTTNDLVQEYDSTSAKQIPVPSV
Sequence of panel of 320 non-olfactory GPCRs (Homo sapiens, UniProt P55085) (P55085 26-397): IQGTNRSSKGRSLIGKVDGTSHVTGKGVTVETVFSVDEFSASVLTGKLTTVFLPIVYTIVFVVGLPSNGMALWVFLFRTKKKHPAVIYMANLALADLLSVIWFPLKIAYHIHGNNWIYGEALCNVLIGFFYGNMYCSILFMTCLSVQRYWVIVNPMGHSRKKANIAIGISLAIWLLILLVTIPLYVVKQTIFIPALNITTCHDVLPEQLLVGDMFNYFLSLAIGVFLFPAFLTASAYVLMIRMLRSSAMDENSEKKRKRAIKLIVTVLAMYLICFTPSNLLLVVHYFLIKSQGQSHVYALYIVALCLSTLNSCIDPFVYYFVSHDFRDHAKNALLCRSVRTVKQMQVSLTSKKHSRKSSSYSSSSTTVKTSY

Compound | Fold of Basal RLU [1] | Fold of Basal RLU [2] | Fold of Basal RLU [3] | Fold of Basal RLU [4] | Fold of Basal RLU [5] | Fold of Basal RLU [6] | Fold of Basal RLU [7] | Fold of Basal RLU [8] | Fold of Basal RLU [9] | Fold of Basal RLU [10] | Fold of Basal RLU [11] | Fold of Basal RLU [12] | Fold of Basal RLU [13] | Fold of Basal RLU [14] | Fold of Basal RLU [15] | Fold of Basal RLU [16] | Fold of Basal RLU [17] | Fold of Basal RLU [18] | Fold of Basal RLU [19] | Fold of Basal RLU [20] | further results
COC(=O)[C@@](C)(NC(=O)c1cc(C)n(-c2cccc(C(F)(F)F)c2)n1)c1cccs1 [‘1350] | 0.8 and 1.2 | 1.4 fold and 1.2 fold and 1.1 fold | 1.1 fold and 1 fold and 1.2 fold and 2 fold | 0.9 and 1.2 | 1.2 and 0.9 and 0.8 and 1 | 0.9 fold and 1 fold | 1.3 fold and 1.6 fold and 2.3 fold and 1.8 fold | 1.3 fold and 1.4 fold and 1 fold | 1.1 fold and 1 fold and 1.6 fold and 2 fold | 0.7 fold and 0.9 fold and 0.8 fold | 1.2 fold and 1.1 fold and 0.8 fold and 1.5 fold | 0.7 and 0.6 and 1 | 1.1 and 1 and 0.9 | 1.3 fold and 1.1 fold and 1.2 fold | 0.6 fold and 1.1 fold and 0.8 fold and 0.7 fold | 0.9 fold and 0.6 fold and 0.8 fold | 0.7 fold and 1.1 fold and 1 fold | 0.8 and 1 and 0.6 | 1.6 and 1.3 and 1.7 | 0.7 and 0.8 and 1.1 and 0.6 | Fold of Basal RLU [21]: 1.5 fold and 1 fold and 1.1 fold; Fold of Basal RLU [22]: 1.2 fold and 1 fold; Fold of Basal RLU [23]: 0.9 fold and 1 fold and 1.1 fold and 0.7 fold; Fold of Basal RLU [24]: 1.5 fold and 1.3 fold and 0.8 fold; Fold of Basal RLU [25]: 1.1 fold and 1.4 fold and 1.5 fold; Fold of Basal RLU [26]: 0.9 fold and 1 fold and 0.8 fold; Fold of Basal RLU [27]: 0.7 fold and 0.9 fold and 0.8 fold; Fold of Basal RLU [28]: 1.5 and 1.6 and 1; Fold of Basal RLU [29]: 0.7 and 0.9 and 1.2 and 1.4; Fold of Basal RLU [30]: 1.2 and 1.8 and 1.3 and 1.4; Fold of Basal RLU [31]: 1.3 and 1.4 and 1.8; Fold of Basal RLU [32]: 1.1 fold and 1 fold and 0.8 fold; Fold of Basal RLU [33]: 0.7 and 0.8 and 1 and 0.9; Fold of Basal RLU [34]: 1 and 0.7 and 0.9; Fold of Basal RLU [35]: 1 fold and 0.8 fold and 1.4 fold; Fold of Basal RLU [36]: 1.6 fold and 1.2 fold and 1.5 fold; Fold of Basal RLU [37]: 0.9 fold and 1.1 fold and 0.7 fold and 1 fold
Cc1cc(C(=O)NC(C)(c2ccco2)c2ccco2)nn1-c1cccc(C(F)(F)F)c1 [‘4936] | 0.9 and 1.3 and 1.1 | 1.2 fold and 1.3 fold | 1.7 fold and 1.4 fold and 1.6 fold | 1.3 and 1.4 and 1.2 and 1.1 | 1 and 0.7 and 1.1 | 0.6 fold and 0.9 fold and 1 fold | 1.6 fold and 1.5 fold and 1.1 fold | 0.9 fold and 1.2 fold and 1 fold and 1.1 fold | 3.3 fold and 2.7 fold and 2.1 fold and 4 fold | 0.9 fold and 0.8 fold and 0.7 fold | 1.1 fold and 0.9 fold and 1 fold | 1.2 and 0.8 and 0.7 and 1.1 | 0.6 and 0.5 | 1.4 fold and 1.2 fold and 1.3 fold | 0.5 fold and 0.8 fold | 0.8 fold and 0.9 fold and 0.7 fold and 0.6 fold | 0.8 fold and 1.1 fold and 0.9 fold | 0.9 and 1.2 and 1.1 and 1.7 | 1.1 and 1 and 1.7 and 1.3 | 0.7 and 0.8 and 1 and 1.2 | Fold of Basal RLU [21]: 1.6 fold and 1.2 fold and 0.9 fold and 1 fold; Fold of Basal RLU [22]: 1.1 fold and 1 fold; Fold of Basal RLU [23]: 0.7 fold and 0.8 fold; Fold of Basal RLU [24]: 1.4 fold and 2.1 fold and 1.5 fold and 1.8 fold; Fold of Basal RLU [25]: 2.3 fold and 1.8 fold and 1.6 fold and 1.5 fold; Fold of Basal RLU [26]: 1.1 fold and 1.3 fold and 0.9 fold and 1.2 fold; Fold of Basal RLU [27]: 1.3 fold and 1 fold and 1.2 fold and 0.8 fold; Fold of Basal RLU [28]: 1.2 and 1 and 0.8 and 0.9; Fold of Basal RLU [29]: 0.3 and 0.6 and 0.4 and 0.5; Fold of Basal RLU [30]: 0.6 and 1.1 and 0.7; Fold of Basal RLU [31]: 1.5 and 1.7 and 1.4 and 2.3; Fold of Basal RLU [32]: 1.1 fold and 1.2 fold and 0.8 fold and 0.9 fold; Fold of Basal RLU [33]: 0.8 and 0.9 and 1; Fold of Basal RLU [34]: 1 and 0.8 and 0.6; Fold of Basal RLU [35]: 1 fold and 1.2 fold and 1.5 fold and 1.3 fold; Fold of Basal RLU [36]: 1.3 fold and 1.2 fold and 1.5 fold and 1.8 fold; Fold of Basal RLU [37]: 0.8 fold and 1 fold and 1.3 fold
